These results are taken from patent publication US5374623A, “Cysteine protease inhibitors effective for in vivo use” (Prototek, Inc., priority 1992, dated 1994).

Data set [1] relates to 45Ca2+-labelled bones (calvaria) of neonatal mice. The data set is described as follows: Parathyroid hormone-stimulated 45Ca2+ release from cultured mouse calvaria. The format is cell-based. Conditions: for inhibition of the rate of 45Ca2+-release: 1 μm inhibitor; for inhibition of the rate of 45Ca2+-release / additional inhibition of the rate of 45Ca2+-release: 24 hour period, PTH-stimulated; for additional inhibition of the rate of 45Ca2+-release: 100 μm inhibitor. As to the method: (§1) Treatment of Osteo Arthritis with Mu-Phe-HPhe-O-Ph. ^45 Ca^2+ -labelled bones (calvaria) of neonatal mice were maintained in culture. The effect of the test compound on the rate of parathyroid hormone-stimulated ^45 Ca^2+ release was measured over a 24 hour period. An inhibitor of bone resorption (at maximal concentrations) would be expected to inhibit this rate by approximately 70%. The nature of the residual, uninhibitable ^45 Ca^2+ -release is not known but could represent chemical exchange of ^45 Ca^2+ with the medium. Mu-Phe-HPhe-O-Ph was dissolved in dimethylsulphoxide which was present in the incubation at concentrations <0.1%.
as §1, with “Mu-Leu-HPhe-O-Ph.” for “Mu-Phe-HPhe-O-Ph.”, “Mu-Leu-HPhe-O-Ph” for “Mu-Phe-HPhe-O-Ph”
as §1, with “Mu-Tyr(OMe)-HPhe-O-Ph.” for “Mu-Phe-HPhe-O-Ph.”, “Mu-Tyr(OMe)-HPhe-O-Ph” for “Mu-Phe-HPhe-O-Ph”
as §1, with “Z-Phe-Ala-O-Ph.” for “Mu-Phe-HPhe-O-Ph.”, “Z-Phe-Ala-O-Ph” for “Mu-Phe-HPhe-O-Ph”
as §1, with “Mu-Tyr(OMe)-HPhe-O-Ph.” for “Mu-Phe-HPhe-O-Ph.”, “labelled” for “-labelled”, “Mu-Tyr(OMe)-HPhe-O-Ph” for “Mu-Phe-HPhe-O-Ph”

Data set [2] deals with T1, Cathepsin B purified from human liver (Homo sapiens, UniProt P07858).
T1 construct: Cathepsin B. purified from human liver; purchased Enzyme Systems Products (Dublin, Calif.); host or cells: human liver (tissue-purified)
The data set is described as follows: Cathepsin B inhibition, potency relative to Z-Phe-Ala-CH2 F. Format: biochemical. Conditions: substrate Z-Leu-Arg-Arg-AFC, pH 6.2, inhibitor added 2 min before substrate. How it is done: Cathepsin B. purified from human liver, was obtained from Enzyme Systems Products (Dublin, Calif.). The activity of the enzyme used in this Example was 50 mU per ml at 30° C. in 50 mm sodium phosphate buffer, pH 6.2, 5 mm DTT, 2 mm EDTA, with Z-Leu-Arg-Arg-7-amino-4-trifluoromethyl courmarin (Z-Leu-Arg-Arg-AFC) as substrate.
Cathepsin B assays were done under the following conditions: Five μl of enzyme stock solution was preincubated with 435 μl of phosphate buffer for 30 minutes to activate the enzyme. Nine μl of 20 mm stock substrate solution (in dimethylformamide) were added and mixed with the activated enzyme. Activity was followed by the release of free AFC as monitored by a Perkin-Elmer LS-5B spectrofluorometer (excitation=400 nm, emission=505 nm).
The inhibitors described herein were prepared in 20 mm stock solutions in DMF. Five μl aliquots of each inhibitor were added to the enzyme 2 min before the substrate was added to the mix. Potency was determined relative to the activity of a standard cathepsin B inhibitor, Z-Phe-Ala-CH2 F (relative potency of 1.0).

Data set [3] has as its system Soluble extracts of P. vinckei. The data set is described as follows: Proteolytic activity of P. vinckei soluble extracts, substrate Z-Phe-Arg-AFC. The format is biochemical. The following applies: read-out: IC50, proteolytic activity of P. vinckei extract. As to the method:
Treatment of Malaria with Mu-Phe-HPhe-O-Ph. Soluble extracts of P. falciparum and P. vinckei were prepared and proteolytic activity was assayed with fluorogenic peptide substrate Z-Phe-Arg-AFC. The activity of control samples was compared with activities in the presence of multiple concentrations of Mu-Phe-HPhe-O-Ph. The concentrations at which activity was inhibited by 50% (IC50) was calculated.
Treatment of Malaria with Mu-Leu-HPhe-O-Ph. Soluble extracts of P. falciparum and P. vinckei were prepared and proteolytic activity was assayed with fluorogenic peptide substrate Z-Phe-Arg-AFC. The activity of control samples was compared with activities in the presence of multiple concentrations of Mu-Leu-HPhe-O-Phe. The concentration at which activity was inhibited by 50%. (IC50) was calculated.
Treatment of Malaria with Mu-Phe-Arg(NO2)-O-Ph. Soluble extracts of P. falciparum and P. vinckei were prepared and proteolytic activity was assayed with fluorogenic peptide substrate Z-Phe-Arg-AFC. The activity of control samples was compared with activities in the presence of multiple concentrations of Mu-Phe-Arg(NO2)-O-Ph. The concentration at which activity was inhibited by 50% (IC50) was calculated.
Treatment of Malaria with Mu-Tyr(OCH3)2 -HPhe-O-Ph. Soluble extracts of P. falciparum and P. vinckei were prepared and proteolytic activity was assayed with fluorogenic peptide substrate Z-Phe-Arg-AFC. The activity of control samples as compared with activities in the presence of multiple concentrations of Mu-Tyr(OCH3)2 -HPhe-O-Ph. The concentration at which activity was inhibited by 50% (IC50) was calculated.

The test system of the next data set is bone resorption. Nature of the data set: In vivo bone resorption by urinary 14C-tetracycline excretion in rats. As to the method: Treatment of Osteo Arthritis with Mu-Phe-HPhe-O-Ph. The skeletons of young growing rats were radioactively labelled by injections with ^14 C-tetracycline over a 10 day period. The amount of bone resorption was then determined each day as the amount of radioactivity excreted in the urine. After 10 days of control excretion, test compounds were administered for three days subcutaneously and their effects on the daily excretion of tetracycline were determined. Tested compounds were dissolved in DMSO/PEG at a concentration of 25 mg/ml and were injected once per day subcutaneously in a volume of 2 ml/kg. Treatment of Osteo Arthritis with Mu-Leu-HPhe-O-Ph. The skeletons of young growing rats were radioactively labelled by injections with ^14 C-tetracycline over a 10 day period. The amount of bone resorption was then determined each day as the amount of radioactivity excreted in the urine. After 10 days of control excretion, test compounds were administered for three days subcutaneously and their effects on the daily excretion of tetracycline were determined. Tested compounds were dissolved in DMSO/PEG at a concentration of 25 mg/ml and were injected once per day subcutaneously in a volume of 2 ml/kg.

The target in data set [4] is Soluble extracts of P. falciparum (cysteine proteinase). The data set is described as follows: Proteolytic activity of P. falciparum soluble extracts, substrate Z-Phe-Arg-AFC. Format: biochemical. The following applies: read-out: IC50, proteolytic activity of P. falciparum extract.
Experimental: Soluble extracts of P. falciparum and P. vinckei were prepared and proteolytic activity was assayed with fluorogenic peptide substrate Z-Phe-Arg-AFC. […] The concentrations at which activity was inhibited by 50% (IC50) was calculated.
Soluble extracts of P. falciparum and P. vinckei were prepared and proteolytic activity was assayed with fluorogenic peptide substrate Z-Phe-Arg-AFC. […] The concentration at which activity was inhibited by 50%. (IC50) was calculated.
Soluble extracts of P. falciparum and P. vinckei were prepared and proteolytic activity was assayed with fluorogenic peptide substrate Z-Phe-Arg-AFC. […] The concentration at which activity was inhibited by 50% (IC50) was calculated.
The subject of data set [5] is adjuvant-induced arthritis. Nature of the data set: Adjuvant-induced arthritis in rats, compound in ground diet (Example 15). The format is in vivo. Conditions: day 0 to day 32. How it is done: Treatment of Rheumatoid Arthritis with Mu-Tyr(OMe)-HPhe-O-Ph. Rats were injected with adjuvant on day 0 and were treated with Mu-Tyr(OMe)-HPhe-O-Ph in ground diet from the time of adjuvant injection until sacrifice at day 32. Over the course of the disease, animals were evaluated in terms of a mean clinical score, a derived series of clinically observed parameters normalized to facilitate graphical presentation. Mean paw volumes were also measured using normalized units throughout the course of the disease. At the end of the study, the animal groups were sacrificed and evaluated by X-ray analysis.

What is called pIC50 is −log10 of the IC50, conventionally taken in molar units.

pIC50: −log10 of the molar value.

Take `CC(NC(=O)C(Cc1ccccc1)NC(=O)OCc1ccccc1)C(=O)COc1ccccc1` (stereo not drawn) [Z-Phe-Ala-O-Ph]: in data set [1], the “inhibition of the rate of 45Ca2+-release” value came out at 50% and the “additional inhibition of the rate of 45Ca2+-release” value (“additional inhibition” for short) is 20%.
With `COC(=O)c1ccccc1OCC(=O)C(C)(C)NC(=O)C(Cc1ccccc1)NC(=O)N1CCOCC1` (stereo not shown) [Example 9, Morpholine carbonyl phenylalanyl 2-aminoisobutyric methyl phenoxy ketone], the “relative potency of cathepsin B inhibition (Z-Phe-Ala-CH2 F = 1.0)” value in data set [2] stood at 0.2.
As to `C[C@H](NC(=O)[C@H](Cc1ccccc1)NC(=O)OCc1ccccc1)C(=O)CF` [Z-Phe-Ala-CH2 F, reference compound], the “relative potency of cathepsin B inhibition (Z-Phe-Ala-CH2 F = 1.0)” value in data set [2] was determined as 1.0.
Regarding `CC(C)C[C@H](NC(=O)N1CCOCC1)C(=O)N[C@@H](CCc1ccccc1)C(=O)COc1ccccc1` [Mu-Leu-HPhe-O-Ph], the pIC50 in data set [3] is 7.82. In data set [1], the “inhibition of the rate of 45Ca2+-release” value is 50% and the “additional inhibition” value was 20%. The “inhibition of bone resorption in vivo as measured by tetracycline excretion” value in the data set with bone resorption (subcutaneous once per day for three days, 25 mg/ml in DMSO/PEG, 2 ml/kg) is “nearly as great as that of a maximal dose of calcitonin”. Further, the “time of maximum effect after dosing commenced” value with bone resorption (subcutaneous once per day, 25 mg/ml, 2 ml/kg) is 24 h. For the same molecule, the “findings at the sites of injection at end of experiment” value in the data set with bone resorption (subcutaneous, DMSO/PEG, three days, histology: inflammation of subcutaneous fat, tissue necrosis) is “lesions were visible at the sites of injection”. In addition, the pIC50 in data set [4] was 9.38.
Turning to `COc1ccc(C[C@H](NC(=O)N2CCOCC2)C(=O)N[C@@H](CCc2ccccc2)C(=O)COc2ccccc2)cc1` [Mu-Tyr(OMe)-HPhe-O-Ph], in data set [1], the “inhibition of the rate of 45Ca2+-release” value is recorded as 50% and the “additional inhibition” value is given as 20%. Besides, the pIC50 in data set [1] (initial phase of inhibition, read-out: IC50 for inhibition of resorption in mouse calvaria) was roughly 7.40. Also, in data set [5], the “mean clinical scores vs untreated animals” value is “significantly lower” and the “mean paw volumes vs untreated animals” value is “significantly reduced”.
Turning to `NC(=NCCCC(NC(=O)C(Cc1ccccc1)NC(=O)N1CCOCC1)C(=O)COc1ccccc1)N[N+](=O)[O-]` (stereo not shown) [Mu-Phe-Arg(NO2)-O-Ph], the figures for the pIC50 in data set [3] and in data set [4] were 6.96 and 8.62, respectively.
As for “t-Butyl carbamyl-L-arginyl-(2-Carboxymethyl) phenoxymethyl ketone [Example 3]”, in data set [2], the “relative potency of cathepsin B inhibition (Z-Phe-Ala-CH2 F = 1.0)” value is on record as “five”.
